Each molecule was assayed against T1, recombinant human MMP-13 (Homo sapiens, UniProt P45452) (assay: Assay of MMP-13 inhibiting activity (fluorogenic peptide substrate)). Details: Table 1; 37° C., 2 hours.
T1 construct: made in house; host or cells: baculovirus (pBlueBac4 / Bac-N-Blue; virus made in Sf9), expressed in High-Five insect cells; culture supernatant used
Type: biochemical
Excerpt: Based on the sequence described in the literature by Freije, J. M. et al (Journal of Biological Chemistry, 269: 16766-16773, 1994) and using a PCR method known per se, a human MMP-13 cDNA was obtained.
A pBlueBac4 (Invitrogen) and a Baculovirus vector Bac-N-Blue (Invitrogen) to each of which the human MMP-13 cDNA obtained above was integrated were co-transfected to an Sf9 cell to obtain a MMP-13-expressing recombinant virus.
The recombinant virus thus obtained was infected to a High-Five cell (Invitrogen), and the culture supernatant after three days was employed as an enzyme solution. Experiment 2 Assay of MMP-13 inhibiting activity
75 μl of a sample containing the recombinant human MMP-13, 200 mM sodium chloride, 20 mM calcium chloride, 0.1% Brij 35, 1 mM 2-mercaptoethanol, 200 mM tris-HCl buffer solution (pH7.5) and a test substance at various concentrations was treated with 25 μl of 40 μM MOCAc-Pro-Leu-Gly-Leu-A2pr(DNP)-Ala-Arg-NH2 (PEPTIDE KENKYUSHO) to initiate a reaction and kept at 37° C. for 2 hours, and then 100 μl of 500 mM sodium acetate-HCl buffer solution (pH3.0) was added to terminate the reaction.
The level of liberated MOCAc-Pro-Leu-Gly was determined using a fluorophotometer (MTP-32/F2: CORONA DENKI) at the excitation wavelength of 330 nm and the fluorescent wavelength of 405 nm. The fluorescent level of the reaction in the absence of a test substance was regarded as 100%, and the concentration of each test substance required for achieving 50% inhibition was indicated as IC50.

Point of comparison: `CC(=O)SCC1CC(=O)N(Cc2ccc(Oc3ccccc3)cc2)C1=O` (stereo not drawn) [Example 10, 3-Acethylmethyl-1-(4-phenoxybenzyl)pyrrolidine-2,5-dione], IC50 400 nM. Against it:
- 3-Mercapto-1-(4-phenoxybenzylpyrrolidine-2,5-dione [Example 1] — 80-fold lower, 5 nM
- CCSC1CC(=O)N(Cc2ccc(Oc3ccccc3)cc2)C1=O (stereo not drawn) [Example 2, 3-Ethylthio-1-(4-phenoxybenzyl)pyrrolidine-2,5-dione] — higher, > 10000 nM
- CCOC(=O)CCSC1CC(=O)N(Cc2ccc(Oc3ccccc3)cc2)C1=O (stereo not drawn) [Example 3, 3-[2-(Ethoxycarbonyl)ethylthio]-1-(4-phenoxybenzyl)pyrrolidine-2,5-dione] — higher, > 10000 nM
- O=C1CC(SCc2ccccc2)C(=O)N1Cc1ccc(Oc2ccccc2)cc1 (stereo not drawn) [Example 4, 3-Benzylthio-1-(4-phenoxybenzyl)pyrrolidine-2,5-dione] — higher, > 10000 nM
- CC(=O)SC1CC(=O)N(Cc2ccc(Oc3ccccc3)cc2)C1=O (stereo not drawn) [Example 5, 3-Acetylthio-1-(4-phenoxybenzyl)pyrrolidine-2,5-dione] — 13-fold lower, 30 nM
- O=C(SC1CC(=O)N(Cc2ccc(Oc3ccccc3)cc2)C1=O)c1ccccc1 (stereo not drawn) [Example 6, 3-Benzoylthio-1-(4-phenoxybenzyl)pyrrolidine-2,5-dione] — 200-fold lower, 2 nM
- O=C1CC(SSCC2CCCO2)C(=O)N1Cc1ccc(Oc2ccccc2)cc1 (stereo not drawn) [Example 11, 3-[(Tetrahydro-2-furanyl)methyldithio]-1-(4-phenoxybenzyl)pyrrolidine-2,5-dione] — 4-fold lower, 100 nM

Same assay, conditions: Table 2; 37° C., 2 hours

Point of comparison: `CC1C(=O)N(Cc2ccc(Oc3ccccc3)cc2)C(=O)C1S` (stereo not drawn) [Example 8, 3-Mercapto-4-methyl-1-(4-phenoxybenzyl)pyrrolidine-2,5-dione], IC50 20 nM. Against it:
- CC(=O)SC1C(=O)N(Cc2ccc(Oc3ccccc3)cc2)C(=O)C1C (stereo not drawn) [Example 7, 3-Acetylthio-4-methyl-1-(4-phenoxybenzyl)pyrrolidine-2,5-dione] — 2.5-fold higher, 50 nM
- COC(=O)CCSC1C(=O)N(Cc2ccc(Oc3ccccc3)cc2)C(=O)C1O (stereo not drawn) [Example 9, 3-Hydroxy-4-[2-(methoxycarbonyl)ethylthio]-1-(4-phenoxybenzyl)pyrrolidine-2,5-dione] — 50-fold higher, 1000 nM

Same assay, conditions: Table 3; 37° C., 2 hours

Point of comparison: `O=C1CC(S)CN1Cc1ccc(Oc2ccccc2)cc1` (stereo not drawn) [Example 17, 4-Mercapto-1-(4-phenoxybenzyl)pyrrolidin-2-one], IC50 5 nM. Against it:
- CC(=O)SC1CC(=O)N(Cc2ccc(Oc3ccccc3)cc2)C1 (stereo not drawn) [Example 15, 4-Acetylthio-1-(4-phenoxybenzyl)pyrrolidin-2-one] — 2-fold higher, 10 nM
- O=C(SC1CC(=O)N(Cc2ccc(Oc3ccccc3)cc2)C1)c1ccccc1 (stereo not drawn) [Example 16, 4-Benzoylthio-1-(4-phenoxybenzyl)pyrrolidin-2-one] — 2.5-fold lower, 2 nM
- CC(C)(C)C(=O)OCSC1CC(=O)N(Cc2ccc(Oc3ccccc3)cc2)C1 (stereo not drawn) [Example 18, 4-Pivaloyloxymethylthio-1-(4-phenoxybenzyl)pyrrolidin-2-one] — 6-fold higher, 30 nM
- CC(=O)S[C@H]1CC(=O)N(Cc2ccc(Oc3ccccc3)cc2)C1 [Example 21, (S)-4-Acetylthio-1-(4-phenoxybenzyl)pyrrolidin-2-one] — 800-fold higher, 4000 nM
- O=C1C[C@H](S)CN1Cc1ccc(Oc2ccccc2)cc1 [Example 22, (S)-4-Mercapto-1-(4-phenoxybenzyl)pyrrolidin-2-one] — 60-fold higher, 300 nM

Same assay, conditions: Table 5; 37° C., 2 hours

Point of comparison: `CC(=O)S[C@@H]1CC(=O)N(Cc2ccc(Oc3ccccc3)cc2)[C@H]1CC(C)C` (relative stereo) [Example 179, trans-4-Acetylthio-5-isobutyl-1-(4-phenoxybenzyl)pyrrolidin-2-one], IC50 9 nM. Against it:
- CC(=O)S[C@@H]1CC(=O)N(Cc2ccc(Oc3ccccc3)cc2)[C@H]1COCc1ccccc1 (relative stereo) [Example 38, Trans-4-acetylthio-5-benzyloxymethyl-1-(4-phenoxybenzyl)pyrrolidin-2-one] — 1.8-fold lower, 5 nM
- CC(C)C[C@H]1[C@H](S)CC(=O)N1Cc1ccc(Oc2ccccc2)cc1 (relative stereo) [Example 180, trans-5-Isobutyl-4-mercapto-1-(4-phenoxybenzyl)pyrrolidin-2-one] — 2.2-fold higher, 20 nM
- CC(=O)S[C@@H]1CC(=O)N(Cc2ccc(Oc3ccccc3)cc2)[C@H]1Cc1ccccc1 (relative stereo) [Example 181, trans-4-Acetylthio-5-benzyl-1-(4-phenoxybenzyl)pyrrolidin-2-one] — within 1.5-fold, 8 nM
- O=C1C[C@@H](S)[C@H](Cc2ccccc2)N1Cc1ccc(Oc2ccccc2)cc1 (relative stereo) [Example 182, trans-5-Benzyl-4-mercapto-1-(4-phenoxybenzyl)pyrrolidin-2-one] — 2.2-fold higher, 20 nM
- CCCNC(=O)OC[C@H]1[C@H](SC(C)=O)CC(=O)N1Cc1ccc(Oc2ccccc2)cc1 (relative stereo) [Example 183, trans-4-Acetylthio-5-propylaminocarbonyloxymethyl-1-(4-phenoxybenzyl)pyrrolidin-2-one] — 2.2-fold higher, 20 nM
- CCCNC(=O)OC[C@H]1[C@H](S)CC(=O)N1Cc1ccc(Oc2ccccc2)cc1 (relative stereo) [Example 184, trans-4-Mercapto-5-propylaminocarbonyloxymethyl-1-(4-phenoxybenzyl)pyrrolidin-2-one] — 3.9-fold lower, 2.3 nM
- CC(=O)S[C@@H]1CC(=O)N(Cc2ccc(Oc3ccccc3)cc2)[C@H]1COC1CCCCO1 (relative stereo) [Example 185, trans-4-Acetylthio-5-(tetrahydro-2H-pyran-2-yl)oxymethyl-1-(4-phenoxybenzyl)pyrrolidin-2-one] — 1.5-fold lower, 6 nM
- CCOC(=O)CNC(=O)[C@H]1[C@H](SC(C)=O)CC(=O)N1Cc1ccc(Oc2ccccc2)cc1 (relative stereo) [Example 186, trans-4-Acetylthio-5-ethoxycarbonylmethylaminocarbonyl-1-(4-phenoxybenzyl)pyrrolidin-2-one] — 5.6-fold higher, 50 nM
- CC(=O)S[C@@H]1CC(=O)N(Cc2ccc(Oc3ccccc3)cc2)[C@H]1C(=O)NCCO (relative stereo) [Example 189, trans-4-Acetylthio-5-(2-hydroxyethyl)aminocarbonyl-1-(4-phenoxybenzyl)pyrrolidin-2-one] — 9.9-fold higher, 89 nM
- O=C(NCCO)[C@H]1[C@H](S)CC(=O)N1Cc1ccc(Oc2ccccc2)cc1 (relative stereo) [Example 190, trans-5-(2-Hydroxyethyl)aminocarbonyl-4-mercapto-1-(4-phenoxybenzyl)pyrrolidin-2-one] — 2.8-fold higher, 25 nM
- CC(=O)S[C@@H]1CC(=O)N(Cc2ccc(Oc3ccccc3)cc2)[C@H]1C(=O)NCc1ccncc1 (relative stereo) [Example 191, trans-4-Acetylthio-5-(4-pyridylmethyl)aminocarbonyl-1-(4-phenoxybenzyl)pyrrolidin-2-one] — 13-fold higher, 120 nM
- O=C(NCc1ccncc1)[C@H]1[C@H](S)CC(=O)N1Cc1ccc(Oc2ccccc2)cc1 (relative stereo) [Example 192, trans-4-Mercapto-5-(4-pyridylmethyl)aminocarbonyl-1-(4-phenoxybenzyl)pyrrolidin-2-one] — 2.1-fold higher, 19 nM
- CC(=O)SC1CC(=O)N(Cc2ccc(Oc3ccccc3)cc2)C1CO (stereo not drawn) [Example 20, Trans-4-acetylthio-5-hydroxymethyl-1-(4-phenoxybenzyl)pyrrolidin-2-one] — within 1.5-fold, 10 nM

Same assay, conditions: Table 7; 37° C., 2 hours

Point of comparison: `O=C1CC(SC2CC(=O)N(Cc3ccc(Oc4ccccc4)cc3)C2=O)C(=O)N1Cc1ccc(Oc2ccccc2)cc1` (stereo not drawn) [Example 14], IC50 100 nM. Against it:
- O=C1CC(SSC2CC(=O)N(Cc3ccc(Oc4ccccc4)cc3)C2=O)C(=O)N1Cc1ccc(Oc2ccccc2)cc1 (stereo not drawn) [Example 12] — 11-fold lower, 9 nM
- O=C1CC(CSSCC2CC(=O)N(Cc3ccc(Oc4ccccc4)cc3)C2=O)C(=O)N1Cc1ccc(Oc2ccccc2)cc1 (stereo not drawn) [Example 13, 3,3′-[Dithiobis(methylene)]bis[1-(4-phenoxybenzyl)pyrrolidine-2,5-dione]] — higher, > 10000 nM
- O=C1CC(SSC2CC(=O)N(Cc3ccc(Oc4ccccc4)cc3)C2)CN1Cc1ccc(Oc2ccccc2)cc1 (stereo not drawn) [Example 19, 4,4′-Dithiobis[1-(4-phenoxybenzyl)pyrrolidin-2-one]] — 2-fold higher, 200 nM
- O=C1C[C@H](SS[C@H]2CC(=O)N(Cc3ccc(Oc4ccccc4)cc3)C2)CN1Cc1ccc(Oc2ccccc2)cc1 [Example 23, (4S,4′S)-4,4′-Dithiobis[1-(4-phenoxybenzyl)pyrrolidin-2-one]] — higher, > 10000 nM
- O=C1C[C@@H](SS[C@@H]2CC(=O)N(Cc3ccc(Oc4ccccc4)cc3)C2)CN1Cc1ccc(Oc2ccccc2)cc1 [Example 26, (4R,4′R)-4,4′-Dithiobis[1-(4-phenoxybenzyl)pyrrolidin-2-one]] — within 1.5-fold, 70 nM

Same assay, conditions: Table 8; 37° C., 2 hours

`CC(=O)SC1CCN(Cc2ccc(Oc3ccccc3)cc2)C1=O` (stereo not drawn) [Example 27, 3-Acetylthio-1-(4-phenoxybenzyl)pyrrolidin-2-one] showed an IC50 greater than 10000 nM.

Same assay, conditions: Table 9; 37° C., 2 hours

In the case of “4-Acetylthio-1-[4-(2′-fluorophenoxy)benzyl]pyrrolidin-2-one [Example 112]”, the IC50 is reported as 20 nM.

Reference: patent publication US6953789B2, “Thiol compounds, their production and use” (Takeda Chemical Industries, Ltd., priority 1998, dated 2005)
